Drawing on patent US12435060B2, “Acylamino bridged heterocyclic compound, and composition and application thereof” (BEIJING SCITECH-MQ PHARMACEUTICALS LIMITED, priority 2019, dated 2025), this text covers IC50 for 29 compounds.

This assay concerns HT29 cells. The experiment in a line: Inhibition of cell necrosis (CCK8 method), induced programmed necrosis of HT29 cells. In kind it is cell-based. To be noted: Homo sapiens, HT-29; rescue from necrosis induced by TNF-α 20 ng/mL, AT-406 1 μM, Z-VAD-FMK 20 μM; 16-20 hours; CCK-8, OD 450 nm. In outline: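 HT29 cells in McCOY's 5A with 10% FBS were pre-treated for 30 min with compound (9 fourfold steps, 25000 to 0.38 nM final, 0.25% DMSO). Necrosis was then induced with TNF-α 20 ng/mL, AT-406 1 μM and Z-VAD-FMK 20 μM for 16-20 h. Viability was read by CCK-8 OD450, normalized between uninduced and induced wells, and IC50 was curve-fitted.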
For `CC(C)(O)CCCCOc1ccc(C(F)(F)F)c(-c2ccnc(NC(=O)c3nnc(CC4CCCC4)[nH]3)c2)c1` [Example 270, 5-(cyclopentylmethyl)-N-(4-(5-((5-hydroxyl-5-methylhexyl)oxy)-2-(trifluoromethyl)phenyl)pyridin-2-yl)-4H-1,2,4-triazole-3-carboxamide], the half-inhibitory concentration (IC50) (commonly the concentration needed to halve the response being measured) was not above 100 nM.

`CC(C)(O)CCCCOc1ccc(C(F)(F)F)c(-c2ccnc(NC(=O)c3nnc(CC4CCCCC4)[nH]3)c2)c1` [Example 271, 5-(cyclohexylmethyl)-N-(4-(5-((5-hydroxyl-5-methylhexyl)oxy)-2-(trifluoromethyl)phenyl)pyridin-2-yl)-4H-1,2,4-triazole-3-carboxamide] returned an IC50 not above 100 nM. With `O=C(Nc1cc(-c2cc(OCCCCO)ccc2C(F)(F)F)ccn1)c1nnc(Cc2ccccc2)[nH]1` [Example 272, 5-benzyl-N-(4-(5-(4-hydroxybutoxy)-2-(trifluoromethyl)phenyl)pyridin-2-yl)-4H-1,2,4-triazole-3-carboxamide], the IC50 was not above 100 nM.

In turn, `O=C(Nc1cc(-c2cc(OCCCCO)ccc2C(F)(F)F)ccn1)c1nnc(Cc2ccccc2F)[nH]1` [Example 273, 5-(2-fluorobenzyl)-N-(4-(5-(4-hydroxybutoxy)-2-(trifluoromethyl)phenyl)pyridin-2-yl)-4H-1,2,4-triazole-3-carboxamide] had an IC50 not above 100 nM. `O=C(Nc1cc(-c2cc(OCCCCO)ccc2C(F)(F)F)ccn1)c1nnc(CC2CCCC2)[nH]1` [Example 274, 5-(cyclopentylmethyl)-N-(4-(5-(4-hydroxybutoxy)-2-(trifluoromethyl)phenyl)pyridin-2-yl)-4H-1,2,4-triazole-3-carboxamide] had an IC50 not above 100 nM. Under `O=C(Nc1cc(-c2cc(OCCCCCO)ccc2C(F)(F)F)ccn1)c1nnc(Cc2ccccc2)[nH]1` [Example 275, 5-benzyl-N-(4-(5-((5-hydroxypentyl)oxy)-2-(trifluoromethyl)phenyl)pyridin-2-yl)-4H-1,2,4-triazole-3-carboxamide] stands not above 100 nM; under `O=C(Nc1cc(-c2cc(OCCCCCO)ccc2C(F)(F)F)ccn1)c1nnc(Cc2ccccc2F)[nH]1` [Example 276, 5-(2-fluorobenzyl)-N-(4-(5-((5-hydroxypentyl)oxy)-2-(trifluoromethyl)phenyl)pyridin-2-yl)-4H-1,2,4-triazole-3-carboxamide], not above 100 nM; under `O=C(Nc1cc(-c2cc(OCCCCCO)ccc2C(F)(F)F)ccn1)c1nnc(CC2CCCC2)[nH]1` [Example 277, 5-(cyclopentylmethyl)-N-(4-(5-((5-hydroxypentyl)oxy)-2-(trifluoromethyl)phenyl)pyridin-2-yl)-4H-1,2,4-triazole-3-carboxamide], not above 100 nM. Under `O=C(Nc1cc(-c2cc(OCCCCCO)ccc2C(F)(F)F)ccn1)c1nnc(CC2CCCCC2)[nH]1` [Example 278, 5-(cyclohexylmethyl)-N-(4-(5-((5-hydroxypentyl)oxy)-2-(trifluoromethyl)phenyl)pyridin-2-yl)-4H-1,2,4-triazole-3-carboxamide] stands not above 100 nM; under `COCCOc1ccc(C(F)(F)F)c(-c2ccnc(NC(=O)c3nnc(Cc4ccccc4)[nH]3)c2)c1` [Example 279, 5-benzyl-N-(4-(5-(2-methoxyethoxy)-2-(trifluoromethyl)phenyl)pyridin-2-yl)-4H-1,2,4-triazole-3-carboxamide], not above 100 nM. Under `COCCOc1ccc(C(F)(F)F)c(-c2ccnc(NC(=O)c3nnc(Cc4ccccc4F)[nH]3)c2)c1` [Example 280, 5-(2-fluorobenzyl)-N-(4-(5-(2-methoxyethoxy)-2-(trifluoromethyl)phenyl)pyridin-2-yl)-4H-1,2,4-triazole-3-carboxamide] stands not above 100 nM; under `COCCOc1ccc(C(F)(F)F)c(-c2ccnc(NC(=O)c3nnc(CC4CCCC4)[nH]3)c2)c1` [Example 281, 5-(cyclopentylmethyl)-N-(4-(5-(2-methoxyethoxy)-2-(trifluoromethyl)phenyl)pyridin-2-yl)-4H-1,2,4-triazole-3-carboxamide], not above 100 nM. `COCCOc1ccc(C(F)(F)F)c(-c2ccnc(NC(=O)c3nnc(CC4CCCCC4)[nH]3)c2)c1` [Example 282, 5-(cyclohexylmethyl)-N-(4-(5-(2-methoxyethoxy)-2-(trifluoromethyl)phenyl)pyridin-2-yl)-4H-1,2,4-triazole-3-carboxamide] returned an IC50 not above 100 nM.

In turn, `CCOCCOc1ccc(C(F)(F)F)c(-c2ccnc(NC(=O)c3nnc(Cc4ccccc4)[nH]3)c2)c1` [Example 283, 5-benzyl-N-(4-(5-(2-ethoxyethoxy)-2-(trifluoromethyl)phenyl)pyridin-2-yl)-4H-1,2,4-triazole-3-carboxamide] came in with an IC50 not above 100 nM. The same measure for `CCOCCOc1ccc(C(F)(F)F)c(-c2ccnc(NC(=O)c3nnc(Cc4ccccc4F)[nH]3)c2)c1` [Example 284, 5-(2-fluorobenzyl)-N-(4-(5-(2-ethoxyethoxy)-2-(trifluoromethyl)phenyl)pyridin-2-yl)-4H-1,2,4-triazole-3-carboxamide]: not above 100 nM.

Compound `CCOCCOc1ccc(C(F)(F)F)c(-c2ccnc(NC(=O)c3nnc(CC4CCCC4)[nH]3)c2)c1` [Example 285, 5-(cyclopentylmethyl)-N-(4-(5-(2-ethoxyethoxy)-2-(trifluoromethyl)phenyl)pyridin-2-yl)-4H-1,2,4-triazole-3-carboxamide] showed a 50% inhibitory concentration (IC50) not above 100 nM. For `CCOCCOc1ccc(C(F)(F)F)c(-c2ccnc(NC(=O)c3nnc(CC4CCCCC4)[nH]3)c2)c1` [Example 286, 5-(cyclohexylmethyl)-N-(4-(5-(2-ethoxyethoxy)-2-(trifluoromethyl)phenyl)pyridin-2-yl)-4H-1,2,4-triazole-3-carboxamide], the half-maximal inhibitory concentration (IC50) is not above 100 nM.

The compound `CC(C)OCCOc1ccc(C(F)(F)F)c(-c2ccnc(NC(=O)c3nnc(Cc4ccccc4)[nH]3)c2)c1` [Example 287, 5-benzyl-N-(4-(5-(2-isopropoxyethoxy)-2-(trifluoromethyl)phenyl)pyridin-2-yl)-4H-1,2,4-triazole-3-carboxamide] showed an IC50 not above 100 nM. The same measure for `CC(C)OCCOc1ccc(C(F)(F)F)c(-c2ccnc(NC(=O)c3nnc(Cc4ccccc4F)[nH]3)c2)c1` [Example 288, 5-(2-fluorobenzyl)-N-(4-(5-(2-isopropoxyethoxy)-2-(trifluoromethyl)phenyl)pyridin-2-yl)-4H-1,2,4-triazole-3-carboxamide]: not above 100 nM. The same measure for `CC(C)OCCOc1ccc(C(F)(F)F)c(-c2ccnc(NC(=O)c3nnc(CC4CCCC4)[nH]3)c2)c1` [Example 289, 5-(cyclopentylmethyl)-N-(4-(5-(2-isopropoxyethoxy)-2-(trifluoromethyl)phenyl)pyridin-2-yl)-4H-1,2,4-triazole-3-carboxamide]: not above 100 nM; for `CC(C)OCCOc1ccc(C(F)(F)F)c(-c2ccnc(NC(=O)c3nnc(CC4CCCCC4)[nH]3)c2)c1` [Example 290, 5-(cyclohexylmethyl)-N-(4-(5-(2-isopropoxyethoxy)-2-(trifluoromethyl)phenyl)pyridin-2-yl)-4H-1,2,4-triazole-3-carboxamide]: not above 100 nM; for `CC(C)(C)OCCOc1ccc(C(F)(F)F)c(-c2ccnc(NC(=O)c3nnc(Cc4ccccc4)[nH]3)c2)c1` [Example 291, 5-benzyl-N-(4-(5-(2-(tert-butoxy)ethoxy)-2-(trifluoromethyl)phenyl)pyridin-2-yl)-4H-1,2,4-triazole-3-carboxamide]: not above 100 nM. Under `CC(C)(C)OCCOc1ccc(C(F)(F)F)c(-c2ccnc(NC(=O)c3nnc(Cc4ccccc4F)[nH]3)c2)c1` [Example 292, 5-(2-fluorobenzyl)-N-(4-(5-(2-(tert-butoxy)ethoxy)-2-(trifluoromethyl)phenyl)pyridin-2-yl)-4H-1,2,4-triazole-3-carboxamide] stands not above 100 nM; under `CC(C)(C)OCCOc1ccc(C(F)(F)F)c(-c2ccnc(NC(=O)c3nnc(CC4CCCC4)[nH]3)c2)c1` [Example 293, 5-(cyclopentylmethyl)-N-(4-(5-(2-(tert-butoxy)ethoxy)-2-(trifluoromethyl)phenyl)pyridin-2-yl)-4H-1,2,4-triazole-3-carboxamide], not above 100 nM; under `CC(C)(C)OCCOc1ccc(C(F)(F)F)c(-c2ccnc(NC(=O)c3nnc(CC4CCCCC4)[nH]3)c2)c1` [Example 294, 5-(cyclohexylmethyl)-N-(4-(5-(2-(tert-butoxy)ethoxy)-2-(trifluoromethyl)phenyl)pyridin-2-yl)-4H-1,2,4-triazole-3-carboxamide], not above 100 nM.

For the compound `COCCCOc1ccc(C(F)(F)F)c(-c2ccnc(NC(=O)c3nnc(Cc4ccccc4)[nH]3)c2)c1` [Example 295, 5-benzyl-N-(4-(5-(3-methoxypropoxy)-2-(trifluoromethyl)phenyl)pyridin-2-yl)-4H-1,2,4-triazole-3-carboxamide], the IC50 was not above 100 nM. As to `COCCCOc1ccc(C(F)(F)F)c(-c2ccnc(NC(=O)c3nnc(Cc4ccccc4F)[nH]3)c2)c1` [Example 296, 5-(2-fluorobenzyl)-N-(4-(5-(3-methoxypropoxy)-2-(trifluoromethyl)phenyl)pyridin-2-yl)-4H-1,2,4-triazole-3-carboxamide], the IC50 was not above 100 nM. Under `COCCCOc1ccc(C(F)(F)F)c(-c2ccnc(NC(=O)c3nnc(CC4CCCC4)[nH]3)c2)c1` [Example 297, 5-(cyclopentylmethyl)-N-(4-(5-(3-methoxypropoxy)-2-(trifluoromethyl)phenyl)pyridin-2-yl)-4H-1,2,4-triazole-3-carboxamide] stands not above 100 nM; under `COCCCOc1ccc(C(F)(F)F)c(-c2ccnc(NC(=O)c3nnc(CC4CCCCC4)[nH]3)c2)c1` [Example 298, 5-(cyclohexylmethyl)-N-(4-(5-(3-methoxypropoxy)-2-(trifluoromethyl)phenyl)pyridin-2-yl)-4H-1,2,4-triazole-3-carboxamide], not above 100 nM.
